Reference: US20040185430A1, “Process for evaluating the cosmetic or dermatological activity of a product and use of plant material” (priority 2002, published 2004)

Legend:
Carrot [1] = experiment: Moisturizing effect, CM820 corneometer, carrot model; conditions: 4 mg/cm2 topical, T 2 hours vs T0, corrected for control region
Experimental: (§1) Measurements were carried out at approximately 22° C. and a relative humidity ranging from 53% to 67%. Fruits and vegetables: 2 samples per product, measured at intervals of 24 hours. Application to regions of 4 cm^2. A control region on each sample. Application of the formulations at the rate of 4 mg/cm^2 (search for the direction of the action and not for the performance of the product). Moisturizing—Measurement with a CM820 corneometer of the mean value of 5 determinations. Measurements at: T0: reference value before application of the formulations. T 2 hours for the active principles (single measurement after observation of appearance of cuts on the leaves brought about by the measuring pressure of the corneometer). T 1 hour and T 4 hours for the commercial formulations. The values are the mean of the measurements at Ti divided by those at TO corrected for the variations in the control regions.

Potato, BF15 [2] = experiment: Moisturizing effect, CM820 corneometer, potato model; conditions: 4 mg/cm2 topical, T 2 hours vs T0, corrected for control region
Experimental: as §1

Apples, Golden Delicious [3] = experiment: Moisturizing effect, CM820 corneometer, apple model; conditions: 4 mg/cm2 topical, T 2 hours vs T0, corrected for control region
Experimental: as §1

Ficus [4] = experiment: Moisturizing effect, CM820 corneometer, Ficus leaves; conditions: Ficus leaf; 4 mg/cm2 topical; T 2 hours vs T0, corrected for control
Experimental: as §1, with “Plants:” for “Fruits and vegetables:”, “Application” for “Application to regions”, “the formulations over the whole of the vernicose (upper) surface. One leaf per formulation+one” for “4 cm^2. A”, “leaf. […]” for “region on each sample.”

Syngonium [5] = experiment: Moisturizing effect, CM820 corneometer, Syngonium leaves; conditions: Syngonium leaf; 4 mg/cm2 topical; T 2 hours vs T0, corrected for control
Experimental: as §1, with “Plants:” for “Fruits and vegetables:”, “Application” for “Application to regions”, “the formulations over the whole of the vernicose (upper) surface. One leaf per formulation+one” for “4 cm^2. A”, “leaf. […]” for “region on each sample.”

Spatyphillum [6] = experiment: Moisturizing effect, CM820 corneometer, Spatyphillum leaves; conditions: Spatyphillum leaf; 4 mg/cm2 topical; T 2 hours vs T0, corrected for control
Experimental: as §1, with “Plants:” for “Fruits and vegetables:”, “Application” for “Application to regions”, “the formulations over the whole of the vernicose (upper) surface. One leaf per formulation+one” for “4 cm^2. A”, “leaf. […]” for “region on each sample.”

Man [7] = experiment: Moisturizing effect, CM820 corneometer, human model (inner forearm); type: in vivo; conditions: 4 mg/cm2 topical, T 2 hours vs T0, corrected for control region
Experimental: 2) To measure the moisturizing and the barrier effects, the human models (2 male volunteers and 2 female volunteers) took part in the tests and measurements under environmental conditions which were also controlled. Measurements were carried out at approximately 22° C. and a relative humidity ranging from 53% to 67%. Human beings: 4 models per product. Application to an inner region of the arm. Three regions of measurements, including a control, on the inner part of each forearm were conducted. The models were kept calm under climate-controlled measuring conditions for 15 minutes before each series of measurements. Application of each formulation over an area of 16 cm^2. Application of the formulations at the rate of 4 mg/cm^2 (search for the direction of the action and not for the performance of the product). Moisturizing—Measurement with a CM820 corneometer of the mean value of 5 determinations. Measurements at: T0: reference value before application of the formulations. T 2 hours for the active principles (single measurement after observation of appearance of cuts on the leaves brought about by the measuring pressure of the corneometer). T 1 hour and T 4 hours for the commercial formulations. The values are the mean of the measurements at Ti divided by those at TO corrected for the variations in the control regions.

Carrot [8] = experiment: Barrier effect, insensible water loss (IWL), Dermalab, carrot model; conditions: 4 mg/cm2 topical, T 2 hours vs T0, corrected for control region
Experimental: (§2) Measurements were carried out at approximately 22° C. and a relative humidity ranging from 53% to 67%. Fruits and vegetables: 2 samples per product, measured at intervals of 24 hours. Application to regions of 4 cm^2. A control region on each sample. Application of the formulations at the rate of 4 mg/cm^2 (search for the direction of the action and not for the performance of the product). The plant and human models and the products tested were the same as in Example 1. The IWL (insensible water loss) measurements were carried out according to the same protocol as above. IWL: Measurement with a Dermalab (vertical probe in contact with the measurement region, under minimum pressure). For the plants, a glass sheet was placed under the measurement region. 2 series of consecutive measurements of 25 values were conducted. The values are the mean of the measurements at Ti divided by those at T0 corrected for the variations in the control regions.

Potato, BF15 [9] = experiment: Barrier effect, insensible water loss (IWL), Dermalab, potato model; conditions: 4 mg/cm2 topical, T 2 hours vs T0, corrected for control region
Experimental: as §2

Apples, Golden Delicious [10] = experiment: Barrier effect, insensible water loss (IWL), Dermalab, apple model; conditions: 4 mg/cm2 topical, T 2 hours vs T0, corrected for control region
Experimental: as §2

Syngonium [11] = experiment: Barrier effect, insensible water loss (IWL), Dermalab, Syngonium leaves; conditions: Syngonium leaf; 4 mg/cm2 topical; T 2 hours vs T0, corrected for control
Experimental: as §2, with “Plants:” for “Fruits and vegetables:”, “Application” for “Application to regions”, “the formulations over the whole of the vernicose (upper) surface. One leaf per formulation+one” for “4 cm^2. A”, “leaf. […]” for “region on each sample.”

Spatyphillum [12] = experiment: Barrier effect, insensible water loss (IWL), Dermalab, Spatyphillum leaves; conditions: Spatyphillum leaf; 4 mg/cm2 topical; T 2 hours vs T0, corrected for control
Experimental: as §2, with “Plants:” for “Fruits and vegetables:”, “Application” for “Application to regions”, “the formulations over the whole of the vernicose (upper) surface. One leaf per formulation+one” for “4 cm^2. A”, “leaf. […]” for “region on each sample.”

Man [13] = experiment: Barrier effect, insensible water loss (IWL), Dermalab, human model (inner forearm); type: in vivo; conditions: 4 mg/cm2 topical, T 2 hours vs T0, corrected for control region
Experimental: 2) To measure the moisturizing and the barrier effects, the human models (2 male volunteers and 2 female volunteers) took part in the tests and measurements under environmental conditions which were also controlled. Measurements were carried out at approximately 22° C. and a relative humidity ranging from 53% to 67%. Human beings: 4 models per product. Application to an inner region of the arm. Three regions of measurements, including a control, on the inner part of each forearm were conducted. The models were kept calm under climate-controlled measuring conditions for 15 minutes before each series of measurements. Application of each formulation over an area of 16 cm^2. Application of the formulations at the rate of 4 mg/cm^2 (search for the direction of the action and not for the performance of the product). The plant and human models and the products tested were the same as in Example 1. The IWL (insensible water loss) measurements were carried out according to the same protocol as above. IWL: Measurement with a Dermalab (vertical probe in contact with the measurement region, under minimum pressure). For the plants, a glass sheet was placed under the measurement region. 2 series of consecutive measurements of 25 values were conducted. The values are the mean of the measurements at Ti divided by those at T0 corrected for the variations in the control regions.

Ficus [14] = experiment: Barrier effect, insensible water loss (IWL), Dermalab, Ficus leaves; conditions: Ficus leaf; 4 mg/cm2 topical; T 2 hours vs T0, corrected for control
Experimental: as §2, with “Plants:” for “Fruits and vegetables:”, “Application” for “Application to regions”, “the formulations over the whole of the vernicose (upper) surface. One leaf per formulation+one” for “4 cm^2. A”, “leaf. […]” for “region on each sample.”

SMILES | Variation T 2 hours/T0 Corneo (Carrot [1]) | Variation T 2 hours/T0 Corneo (Potato, BF15 [2]) | Variation T 2 hours/T0 Corneo (Apples, Golden Delicious [3]) | Variation T 2 hours/T0 Corneo (Ficus [4]) | Variation T 2 hours/T0 Corneo (Syngonium [5]) | Variation T 2 hours/T0 Corneo (Spatyphillum [6]) | Variation T 2 hours/T0 Corneo (Man [7]) | Variation T 2 hours/T0 IWL (Carrot [8]) | Variation T 2 hours/T0 IWL (Potato, BF15 [9]) | Variation T 2 hours/T0 IWL (Apples, Golden Delicious [10]) | Variation T 2 hours/T0 IWL (Syngonium [11]) | Variation T 2 hours/T0 IWL (Spatyphillum [12]) | Variation T 2 hours/T0 IWL (Man [13]) | Variation T 2 hours/T0 IWL (Ficus [14])
CCCCCCCCCCCCOP(=O)(O)O [Surfactant, Lauryl phosphate] | 271% | 1144% | 2% | 20% | 48% | 30% | 5% | 2% | 48% | 0% | 104% | 13% | 19% | –
OCC(O)CO [Glycerol] | 62% | 69% | 16% | 47% | 38% | 52% | 22% | 1% | 188% | – | 40% | 14% | 55% | 183%
